Like-named read-outs stand apart in the source and are kept apart here.
Experiments:
recombinant NL4-3 virus = assay: Antiviral activity toward recombinant NL4-3 Renilla luciferase virus in MT-2 cells; format: cell-based, HIV
Experimental: MT-2 cells, 293T cells and the proviral DNA clone of NL4-3 virus were obtained from the NIH AIDS Research and Reference Reagent Program. MT-2 cells were propagated in RPMI 1640 media supplemented with 10% heat inactivated fetal bovine serum (FBS), […]. The 293T cells were propagated in DMEM media supplemented with 10% heat inactivated FBS, […]. A recombinant NL4-3 proviral clone, in which a section of the nef gene was replaced with the Renilla luciferase gene, was used to make the reference virus used in these studies. The recombinant virus was prepared through transfection of the recombinant NL4-3 proviral clone into 293T cells using Transit-293 Transfection Reagent from Mirus Bio LLC (Madison, WI). Supernatant was harvested after 2-3 days and the amount of virus present was titered in MT-2 cells using luciferase enzyme activity as a marker by measuring luciferase enzyme activity. Luciferase was quantitated using the EnduRen Live Cell Substrate from Promega (Madison, WI). Antiviral activities of compounds toward the recombinant virus were quantified by measuring luciferase activity in MT-2 cells infected for 4-5 days with the recombinant virus in the presence of serial dilutions of the compound. […]

[1] = Metabolism in human hepatocytes; format: in vitro ADME
Experimental: Cryopreserved hepatocytes in suspension from human, monkey, dog, rat and mouse were thawed and diluted in pre-warmed William's Medium E (pH 7.4). Aliquots of the hepatocyte suspension were added to test compound working solutions prepared in pre-warmed William's Medium E (pH 7.4) to achieve final concentrations of 0.5 μM in 0.5×10^6 cells per milliliter and ≤0.25% DMSO. These samples were incubated at 37° C. with 5% carbon dioxide and shaking at 200 rpm. The incubations were performed in singlet. […] Following completion of the experiment, samples were analyzed by LC-MS/MS. […] This percentage is calculated by dividing the peak area ratio of test compound following incubation (tx) by the peak area ratio of test compound at time-zero (t0) just prior to incubation. • The elimination rate constant (k, min^−1) is calculated using nonlinear regression fitting with the following equation: Ct=C0×e^(−k×t) • where: • C0 is the initial concentration represented as the peak area ratio (test compound peak area/internal standard peak area); • Ct is the concentration at t represented as the area ratio (test compound peak area/internal standard peak area); • e is the base of the natural logarithm • t is the time (min); • k is the elimination rate constant (min^−1). • The half-life (t1/2, min) is calculated using the following equation: […]

[2] = Subcutaneous pharmacokinetics in rat; format: in vivo, Wistar Han Rats
Experimental: Drug was formulated in 1% Kolliphor P188/1% PEG3350/3.5% Mannitol/94.5% Water and then administered to Wistar Han Rats as a subcutaneous injection at a dose of 20 mg/kg. Blood samples were collected at 0.167, 0.25, 0.5, 0.75, 1, 2, 3, 5, 7, 24, 48, 72, 96 h, and then every 3 days for up to 122 days. Blood samples were collected into K3EDTA tubes and centrifuged at 1500 to 2000×g to obtain plasma. Plasma samples were stored at −20° C. until analysis by LC-MS/MS.

CYP2B6 = assay: Cytochrome P450 (CYP2B6) induction in cryopreserved human hepatocytes, mRNA fold-change method; format: in vitro ADME; conditions: hepatocytes from three donors, 0.12 to 30 μM, 48 hours; Example 1 all three donors, Example 60.2 2 of 3 donors
Experimental: Following the guidance of the FDA (“In Vitro Metabolism- and Transporter-Mediated Drug-Drug Interaction Studies Guidance for Industry”), the potential of Example 1 and Example 60.2 to induce CYP2B6 expression was tested using hepatocytes from the same three individual donors (rather than pooled donors), and changes in enzyme mRNA levels were evaluated using the “fold-change method”. In this test a fold-change in mRNA levels less than 2-fold is considered a negative finding, while a change 2-fold is considered a positive finding.
Compounds were tested in a CYP induction assay using inducible cryopreserved human primary hepatocytes from three donors to determine the potential to cause induction (as measured by an increase in mRNA transcription) of CYP2B6. […] At the end of the incubation, the integrity of cell monolayers, cell density and viability were evaluated to assess cytotoxicity effects. […] Samples were then used in reverse transcription polymerase chain reactions (RT-PCR) to quantify the amount of specific mRNA species encoding the human CYP2B6 gene.
The induction potential of test compounds and controls was compared to known CYP2B6 inducer Phenobarbital (1000 μM). The results of this assay are expressed as fold induction. […] The cytotoxicity was also assessed in parallel to avoid false positive CYP induction results due to cytotoxicity. […]

Structure (SMILES): Cn1nc(NS(C)(=O)=O)c2c(Cl)ccc(-n3c([C@H](Cc4cc(F)cc(F)c4)NC(=O)Cn4nc(C(F)F)c5c4C(F)(F)[C@@H]4C[C@H]54)nc4nc(OCCC(F)(F)F)ccc4c3=O)c21 (atropisomer, axis not shown; (P)) [Example 1, N—((S)-1-((3P)-3-(4-chloro-1-methyl-3-(methylsulfonamido)-1H-indazol-7-yl)-4-oxo-7-(3,3,3-trifluoropropoxy)-3,4-dihydropyrido[2,3-d]pyrimidin-2-yl)-2-(3,5-difluorophenyl)ethyl)-2-((3bS,4aR)-3-(difluoromethyl)-5,5-difluoro-3b,4,4a,5-tetrahydro-1H-cyclopropa[3,4]cyclopenta[1,2-c]pyrazol-1-yl)acetamide]
- EC50 (recombinant NL4-3 virus; Human immunodeficiency virus 1, NL43, MT2, read-out: EC50 (anti-HIV virology assay, revised average)): 25 ± 8 pM
- EC50 (recombinant NL4-3 virus; Human immunodeficiency virus 1, NL43, MT2, read-out: EC50 when initially tested): 34 pM
- intrinsic clearance in human hepatocytes ([1]; 0.5 μM, 0.5×10^6 cells per milliliter): 0.312 mL/min/g liver
- half-life at 0.5 μM ([1]; human, cryopreserved hepatocytes in suspension, pH 7.4, 0.5×10^6 cells per milliliter): > 0.333 days
- % of the AUC extrapolated ([2]; SC 20 mg/kg): 2.89%
- time drug concentrations were maintained above 7 ng/mL for all animals ([2]; SC 20 mg/kg (FIG. 1)): 73 days
- bioavailability ([2]; Wistar Han, plasma, SC 20 mg/kg): 93%
- half-life ([2]; Wistar Han, plasma, SC 20 mg/kg, read-out: apparent half-life of compound in plasma (converted)): 13 days
- CYP2B6 induction finding (mRNA fold-change method) (CYP2B6): negative finding (a fold-change in mRNA levels less than 2-fold is considered a negative finding)

From patent US12129255B2, “Pyrido [2,3-d]pyrimidine derivatives as inhibitors of human immunodeficiency virus replication” (VIIV HEALTHCARE UK (No. 5) LIMITED, priority 2019, dated 2024)
